In patent publication US20070265261A1, “Dpp-IV Inhibitors” (priority 2004, published 2007):

Biological target: T1, DPP-IV (Homo sapiens, UniProt P27487)
T1 construct: Soluble human DPP-IV lacking the transmembrane anchor (Gly31-Pro766); Pre-Pro-alpha-mating factor leader (secretion signal) (N, cleaved yes); made in house
Test: Inhibition of DPP-IV peptidase activity, continuous fluorimetric assay (cleavage of Gly-Pro-AMC)
Type: biochemical
Method: Inhibition of DPP-IV peptidase activity was monitored with a continuous fluorimetric assay. This assay is based on the cleavage of the substrate Gly-Pro-AMC (Bachem) by DPP-IV, releasing free AMC. The assay is carried out in 96-well microtiter plates. In a total volume of 100 μL, compounds are preincubated with […] DPP-IV employing a buffer containing 10 mM Hepes, 150 mM NaCl, 0.005% Tween 20 (pH 7.4). […] The final concentration of DMSO is 1%. The inhibitory potential of the compounds were determined.
Soluble human DPP-IV lacking the transmembrane anchor (Gly31-Pro766) was expressed in a recombinant YEAST-strain as Pre-Pro-alpha-mating fusion. The secreted product (rhuDPP-IV-Gly31-Pro766) was purified from fermentation broth (>90% purity).

T1 sequence (P27487 31-766): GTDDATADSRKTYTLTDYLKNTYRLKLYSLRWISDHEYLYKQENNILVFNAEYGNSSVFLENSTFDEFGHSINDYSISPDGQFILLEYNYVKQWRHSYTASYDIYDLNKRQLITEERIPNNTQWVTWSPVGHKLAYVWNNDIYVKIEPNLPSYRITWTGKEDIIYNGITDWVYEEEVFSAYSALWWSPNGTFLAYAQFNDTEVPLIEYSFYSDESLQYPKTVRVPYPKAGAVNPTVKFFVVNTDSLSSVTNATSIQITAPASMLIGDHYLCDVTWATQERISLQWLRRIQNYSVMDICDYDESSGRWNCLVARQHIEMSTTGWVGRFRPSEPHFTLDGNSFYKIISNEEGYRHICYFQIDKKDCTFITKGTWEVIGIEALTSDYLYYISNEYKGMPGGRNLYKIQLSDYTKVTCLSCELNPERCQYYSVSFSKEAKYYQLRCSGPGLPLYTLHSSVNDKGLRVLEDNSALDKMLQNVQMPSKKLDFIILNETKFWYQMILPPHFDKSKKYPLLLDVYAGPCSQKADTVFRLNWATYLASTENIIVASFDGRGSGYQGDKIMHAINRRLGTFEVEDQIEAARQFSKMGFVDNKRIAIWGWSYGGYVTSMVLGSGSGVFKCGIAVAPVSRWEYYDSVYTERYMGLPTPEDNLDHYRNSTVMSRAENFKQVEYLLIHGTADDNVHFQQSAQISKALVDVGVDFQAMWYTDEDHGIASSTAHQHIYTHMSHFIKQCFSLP

Row | SMILES | IC50 [nM]
1 | N[C@@H](Cc1cc(F)ccc1F)C1CCN(C(=O)c2cnccn2)CC1 (single isomer, unassigned) [Example 44] | 101 to 1000
2 | N[C@@H](Cc1cc(F)ccc1F)C1CCN(C(=O)c2ccc(C(F)(F)F)nc2)CC1 (single isomer, unassigned) [Example 47] | 1000 to 2000
3 | N[C@@H](Cc1cc(F)ccc1F)C1CCN(C(=O)c2ccnc(C(F)(F)F)n2)CC1 (single isomer, unassigned) [Example 50] | 101 to 1000
4 | N[C@@H](Cc1cc(F)ccc1F)C1CCN(C(=O)c2ccnn2C(F)F)CC1 (single isomer, unassigned) [Example 53] | 1000 to 2000
5 | N[C@@H](Cc1cc(F)c(F)cc1F)C1CCN(C(=O)c2ccnc(C(F)(F)F)n2)CC1 (single isomer, unassigned) [Example 65] | 1000 to 2000
6 | N[C@H](Cc1cccc(Cl)c1)C1CCNCC1 (stereo in doubt) [Example 7, 2-(3-Chloro-phenyl)-1-piperidin-4-yl-ethylamine] | 101 to 1000
7 | CC(C)(C)OC(=O)N1CCC(C(N)Cc2cccc(Cl)c2)CC1 (stereo not shown) [Example 6, 4-[1-Amino-2-(3-chloro-phenyl)-ethyl]-piperidine-1-carboxylic acid tert.-butyl ester] | 101 to 1000
8 | N[C@H](Cc1cccc(Cl)c1)C1CCN(C(=O)c2ncccn2)CC1 [Example 8, {4-[(R)-1-Amino-2-(3-chloro-phenyl)-ethyl]-piperidin-1-yl}-pyrimidin-2-yl-methanone] | < 100
9 | NC(Cc1cccc(Cl)c1)C1CCN(C(=O)C2CC2)CC1 (stereo not shown) [Example 9] | 101 to 1000
10 | NC(Cc1cccc(Cl)c1)C1CCN(C(=O)c2ccccc2)CC1 (stereo not shown) [Example 10] | < 100
11 | NC(Cc1cccc(Cl)c1)C1CCN(C(=O)c2cccnc2)CC1 (stereo not shown) [Example 11] | < 100
12 | NC(Cc1cccc(Cl)c1)C1CCN(C(=O)CC2CC2)CC1 (stereo not shown) [Example 12] | 101 to 1000
13 | NC(Cc1cccc(Cl)c1)C1CCN(C(=O)C2CCOC2)CC1 (stereo not shown) [Example 13] | 101 to 1000
14 | NC(Cc1cccc(Cl)c1)C1CCN(C(=O)Cc2ccccc2)CC1 (stereo not shown) [Example 14] | 101 to 1000
15 | NC(Cc1cccc(Cl)c1)C1CCN(C(=O)c2cnccn2)CC1 (stereo not shown) [Example 15] | < 100
16 | NC(Cc1cccc(Cl)c1)C1CCN(C(=O)C2(C(F)(F)F)CC2)CC1 (stereo not shown) [Example 16] | 101 to 1000
17 | NC(Cc1cccc(Cl)c1)C1CCN(C(=O)c2ccc(C(F)(F)F)nc2)CC1 (stereo not shown) [Example 17] | < 100
18 | NC(Cc1cccc(Cl)c1)C1CCN(C(=O)c2cn[nH]c2)CC1 (stereo not shown) [Example 18] | 101 to 1000
19 | Cn1cc(C(=O)N2CCC(C(N)Cc3cccc(Cl)c3)CC2)c(C(F)(F)F)n1 (stereo not shown) [Example 19] | < 100
20 | NC(Cc1cccc(Cl)c1)C1CCN(C(=O)c2ncccn2)CC1 (stereo not shown) [Example 20] | < 100
21 | N[C@@H](Cc1cccc(Cl)c1)C1CCN(C(=O)c2ncccn2)CC1 [Example 21] | 1000 to 2000
22 | NC(Cc1cccc(Cl)c1)C1CCN(C(=O)c2ccnnc2)CC1 (stereo not shown) [Example 22] | < 100
23 | NC(Cc1cccc(Cl)c1)C1CCN(C(=O)c2cncnc2)CC1 (stereo not shown) [Example 23] | < 100
24 | Cc1cc(C(=O)N2CCC(C(N)Cc3cccc(Cl)c3)CC2)no1 (stereo not shown) [Example 24] | < 100

Row | SMILES | IC50 [nM]
25 | NC(Cc1cccc(Cl)c1)C1CCN(C(=O)c2ccnn2C(F)F)CC1 (stereo not shown) [Example 25] | < 100
26 | NC(Cc1cccc(Cl)c1)C1CCN(C(=O)c2ccn(C(F)F)n2)CC1 (stereo not shown) [Example 26] | < 100
27 | Cn1cncc1C(=O)N1CCC(C(N)Cc2cccc(Cl)c2)CC1 (stereo not shown) [Example 27] | < 100
28 | Cn1ncc(C(=O)N2CCC(C(N)Cc3cccc(Cl)c3)CC2)c1C(F)(F)F (stereo not shown) [Example 28] | < 100
29 | Cn1cnc(C(=O)N2CCC(C(N)Cc3cccc(Cl)c3)CC2)c1 (stereo not shown) [Example 29] | 101 to 1000
30 | Cn1nc(C(=O)N2CCC(C(N)Cc3cccc(Cl)c3)CC2)cc1C(F)(F)F (stereo not shown) [Example 30] | < 100
31 | Cn1nc(C(F)(F)F)cc1C(=O)N1CCC(C(N)Cc2cccc(Cl)c2)CC1 (stereo not shown) [Example 31] | 101 to 1000
32 | NC(Cc1cccc(Cl)c1)C1CCN(C(=O)c2cnccc2C(F)(F)F)CC1 (stereo not shown) [Example 32] | < 100
33 | NC(Cc1cccc(Cl)c1)C1CCN(C(=O)c2cc(C(F)(F)F)n[nH]2)CC1 (stereo not shown) [Example 33] | 101 to 1000
34 | NC(Cc1cccc(Cl)c1)C1CCN(S(=O)(=O)C2CC2)CC1 (stereo not shown) [Example 34, 2-(3-Chloro-phenyl)-1-(1-cyclopropanesulphonyl-piperidin-4-yl)-ethylamine] | < 100
35 | NC(Cc1cccc(Cl)c1)C1CCN(S(=O)(=O)c2ccccc2)CC1 (stereo not shown) [Example 35] | < 100
36 | NC(Cc1cccc(Cl)c1)C1CCN(S(=O)(=O)Cc2ccccc2)CC1 (stereo not shown) [Example 36] | < 100
37 | NC(Cc1cc(F)ccc1F)C1CCN(S(=O)(=O)C2CC2)CC1 (stereo not shown) [Example 37] | < 100
38 | N[C@H](Cc1cc(F)ccc1F)C1CCN(S(=O)(=O)C2CC2)CC1 [Example 38] | < 100
39 | N[C@@H](Cc1cc(F)ccc1F)C1CCN(S(=O)(=O)C2CC2)CC1 [Example 39] | 101 to 1000
40 | CC(C)(C)OC(=O)N1CCC(C(N)Cc2cc(F)ccc2F)CC1 (stereo not shown) [Example 40, 4-[1-Amino-2-(2,5-difluoro-phenyl)-ethyl]-piperidine-1-carboxylic acid tert-butyl ester] | < 100
41 | N[C@H](Cc1cc(F)ccc1F)C1CCN(C(=O)c2ncccn2)CC1 [Example 41] | < 100
42 | N[C@@H](Cc1cc(F)ccc1F)C1CCN(C(=O)c2ncccn2)CC1 [Example 42] | 1000 to 2000
43 | N[C@H](Cc1cc(F)ccc1F)C1CCN(C(=O)c2cnccn2)CC1 [Example 43] | < 100
44 | NC(Cc1cc(F)ccc1F)C1CCN(C(=O)c2cnccn2)CC1 (stereo not shown) [Example 45] | < 100
45 | N[C@H](Cc1cc(F)ccc1F)C1CCN(C(=O)c2ccc(C(F)(F)F)nc2)CC1 [Example 46] | < 100
46 | NC(Cc1cc(F)ccc1F)C1CCN(C(=O)c2ccc(C(F)(F)F)nc2)CC1 (stereo not shown) [Example 48] | < 100
47 | N[C@H](Cc1cc(F)ccc1F)C1CCN(C(=O)c2ccnc(C(F)(F)F)n2)CC1 [Example 49] | < 100
48 | NC(Cc1cc(F)ccc1F)C1CCN(C(=O)c2ccnc(C(F)(F)F)n2)CC1 (stereo not shown) [Example 51] | < 100

Row | SMILES | IC50 [nM]
49 | N[C@H](Cc1cc(F)ccc1F)C1CCN(C(=O)c2ccnn2C(F)F)CC1 [Example 52] | < 100
50 | NC(Cc1cc(F)ccc1F)C1CCN(C(=O)c2cnc(C(F)(F)F)nc2)CC1 (stereo not shown) [Example 54] | < 100
51 | NC(Cc1cc(F)ccc1F)C1CCN(C(=O)c2ncc(F)cc2F)CC1 (stereo not shown) [Example 55] | < 100
52 | NC(Cc1cc(F)ccc1F)C1CCN(C(=O)c2ccn(C(F)F)n2)CC1 (stereo not shown) [Example 56] | < 100
53 | NC(Cc1cc(F)ccc1F)C1CCN(C(=O)c2ncccc2C(F)(F)F)CC1 (stereo not shown) [Example 57] | < 100
54 | NC(Cc1cc(F)ccc1F)C1CCN(C(=O)c2cc(C(F)(F)F)ccn2)CC1 (stereo not shown) [Example 58] | < 100
55 | NC(Cc1cc(F)ccc1F)C1CCN(C(=O)c2cccc(C(F)(F)F)n2)CC1 (stereo not shown) [Example 59] | < 100
56 | N[C@H](Cc1cc(F)ccc1F)C1CCN(C(=O)c2nccc(C(F)(F)F)n2)CC1 [Example 60] | < 100
57 | N[C@@H](Cc1cc(F)ccc1F)C1CCN(C(=O)c2nccc(C(F)(F)F)n2)CC1 [Example 61] | 101 to 1000
58 | N[C@H](Cc1cc(F)c(F)cc1F)C1CCN(C(=O)c2ncccn2)CC1 [Example 63, {4-[(R)-1-amino-2-(2,4,5-trifluoro-phenyl)-ethyl]-piperidine-1yl}-pyrimidine-2-yl-methanone] | < 100
59 | N[C@H](Cc1cc(F)c(F)cc1F)C1CCN(C(=O)c2ccnc(C(F)(F)F)n2)CC1 [Example 64] | < 100
60 | NC(Cc1cc(F)c(F)cc1F)C1CCN(C(=O)c2ccnc(C(F)(F)F)n2)CC1 (stereo not shown) [Example 66] | < 100
61 | N[C@H](Cc1cc(F)c(F)cc1F)C1CCN(C(=O)c2ccc(C(F)(F)F)nc2)CC1 [Example 67] | < 100
62 | N[C@H](Cc1cc(F)cc(F)c1F)C1CCN(C(=O)c2ncccn2)CC1 [Example 68] | 101 to 1000
63 | N[C@H](Cc1cc(F)cc(F)c1F)C1CCN(C(=O)c2ccnc(C(F)(F)F)n2)CC1 [Example 69] | < 100
64 | CC(C)(C)OC(=O)N1CCCC(C(N)Cc2cccc(Cl)c2)C1 (stereo not shown) [Example 70, 3-[1-Amino-2-(3-chloro-phenyl)-ethyl]-piperidine-1-carboxylic acid tert.-butyl ester] | 101 to 1000
65 | NC(Cc1cccc(Cl)c1)C1CCCNC1 (stereo not shown) [Example 71, 2-(3-Chloro-phenyl)-1-piperidin-3-yl-ethylamine] | 1000 to 2000
66 | CS(=O)(=O)Nc1cccc(C(=O)N2CCC(C(N)Cc3cccc(Cl)c3)CC2)c1 (stereo not shown) [Example 72, N-(3-{4-[1-Amino-2-(3-chloro-phenyl)-ethyl]-piperidine-1-carbonyl}-phenyl)-methane-sulphonamide] | < 100
67 | NC(Cc1cccc(Cl)c1)C1CCN(c2ncccn2)CC1 (stereo not shown) [Example 73] | 101 to 1000
68 | NC(Cc1cc(F)ccc1F)C1CCN(C(=O)N2CCC(F)(F)C2)CC1 (stereo not shown) [Example 74, {4-[1-Amino-2-(2 5-difluoro-phenyl)-ethyl]-piperidin-1-yl}-(3,3-difluoro-pyrrolidin-1-yl)-methanone] | < 100
69 | NC(Cc1cccc(Cl)c1)C1CCN(C(=O)N2CCOCC2)CC1 (stereo not shown) [Example 75] | < 100
70 | NC(Cc1cccc(Cl)c1)C1CCN(C(=O)N2CCCC2)CC1 (stereo not shown) [Example 76] | < 100
